Measurements as given in patent US12655116B2, “Substituted isophthalic acid diamides” (Bayer Aktiengesellschaft, priority 2020, dated 2026).

Key:
[1] = test system: SETVI; assay: Post-emergence herbicidal action against SETVI; type: in vivo, Setaria viridis; conditions: Setaria viridis, 504 h
Outline: (§1)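 Percent herbicidal action is rated by eye about 3 weeks after treatment against untreated controls, where 100% means dead plants and 0% means like controls. Plants in sandy loam are sprayed on green parts at the one-leaf stage with aqueous WP or EC preparations at 600 to 800 l/ha plus 0.2% wetting agent.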

[2] = test system: SETVI; assay: Pre-emergence herbicidal action against SETVI; type: in vivo, Setaria viridis; conditions: Setaria viridis, 504 h
Outline: (§2)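 Seeds sown in sandy loam, soil-covered; compound sprayed on soil surface pre-emergence. Application: WP/EC, 600–800 l/ha, 0.2% wetting agent. Readout: visual % damage at 3 weeks.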

[3] = test system: DIGSA; assay: Pre-emergence herbicidal action against DIGSA; type: in vivo, Digitaria sanguinalis; conditions: Digitaria sanguinalis, 504 h
Outline: as §2

[4] = test system: AMARE; assay: Pre-emergence herbicidal action against AMARE; type: in vivo, Amaranthus retroflexus; conditions: Amaranthus retroflexus, 504 h, scored visually after 3 weeks vs untreated controls, 100% = plants have died, 0% = like control plants
Outline: as §2

[5] = test system: STEME; assay: Pre-emergence herbicidal action against STEME; type: in vivo, Stellaria media; conditions: Stellaria media, 504 h
Outline: as §2

[6] = test system: AVEFA; assay: Post-emergence herbicidal action against AVEFA; type: in vivo, Avena fatua; conditions: Avena fatua, 504 h, visual assessment about 3 weeks after treatment, 100% = plants have died, 0% = like control plants
Outline: as §1

[7] = test system: LOLRI; assay: Pre-emergence herbicidal action against LOLRI; type: in vivo, Lolium rigidum; conditions: Lolium rigidum, 504 h
Outline: as §2

[8] = test system: ECHCG; assay: Pre-emergence herbicidal action against ECHCG; type: in vivo, Echinochloa crus-galli; conditions: Echinochloa crus-galli, 504 h, 80 g/ha
Outline: as §2

[9] = test system: HORMU; assay: Post-emergence herbicidal action against HORMU; type: in vivo, Hordeum murinum; conditions: Hordeum murinum, 504 h, dosage 20 g/ha
Outline: as §1

[10] = test system: STEME; assay: Post-emergence herbicidal action against STEME; type: in vivo, Stellaria media; conditions: Stellaria media, 504 h
Outline: as §1

[11] = test system: ALOMY; assay: Pre-emergence herbicidal action against ALOMY; type: in vivo, Alopecurus myosuroides; conditions: Alopecurus myosuroides, 504 h, pre-emergence
Outline: as §2

[12] = test system: MATIN; assay: Pre-emergence herbicidal action against MATIN; type: in vivo, Matricaria inodora; conditions: Tripleurospermum inodorum, 504 h
Outline: as §2

[13] = test system: AVEFA; assay: Pre-emergence herbicidal action against AVEFA; type: in vivo, Avena fatua; conditions: Avena fatua, 504 h; 80 g/ha, pre-emergence
Outline: as §2

[14] = test system: LOLRI; assay: Post-emergence herbicidal action against LOLRI; type: in vivo, Lolium rigidum; conditions: Lolium rigidum, 504 h, dosage 20 g/ha
Outline: as §1

[15] = test system: ABUTH; assay: Post-emergence herbicidal action against ABUTH; type: in vivo, Abutilon theophrasti; conditions: Abutilon theophrasti, 504 h, dosage 20 g/ha, visual assessment about 3 weeks after treatment vs untreated controls
Outline: as §1

[16] = test system: AMARE; assay: Post-emergence herbicidal action against AMARE; type: in vivo, Amaranthus retroflexus; conditions: Amaranthus retroflexus, 504 h, 20 g/ha, visual assessment about 3 weeks after treatment, 100% = plants have died, 0% = like control plants
Outline: as §1

[17] = test system: HORMU; assay: Pre-emergence herbicidal action against HORMU; type: in vivo, Hordeum murinum; conditions: Hordeum murinum, 504 h; 80 g/ha, pre-emergence
Outline: as §2

[18] = test system: PHBPU; assay: Pre-emergence herbicidal action against PHBPU; type: in vivo, Pharbitis purpurea; conditions: Ipomoea purpurea, 504 h, dosage 80 g/ha
Outline: as §2

[19] = test system: VIOTR; assay: Post-emergence herbicidal action against VIOTR; type: in vivo, Viola tricolor; conditions: Viola tricolor, 504 h
Outline: as §1

[20] = test system: ALOMY; assay: Post-emergence herbicidal action against ALOMY; type: in vivo, Alopecurus myosuroides; conditions: Alopecurus myosuroides, 504 h, dosage 20 g/ha, visual assessment about 3 weeks after treatment vs untreated controls
Outline: as §1

[21] = test system: ABUTH; assay: Pre-emergence herbicidal action against ABUTH; type: in vivo, Abutilon theophrasti; conditions: Abutilon theophrasti, 504 h
Outline: as §2

[22] = test system: DIGSA; assay: Post-emergence herbicidal action against DIGSA; type: in vivo, Digitaria sanguinalis; conditions: Digitaria sanguinalis, 504 h
Outline: as §1

[23] = test system: ECHCG; assay: Post-emergence herbicidal action against ECHCG; type: in vivo, Echinochloa crus-galli; conditions: Echinochloa crus-galli, 504 h, dosage 20 g/ha
Outline: as §1

[24] = test system: POLCO; assay: Pre-emergence herbicidal action against POLCO; type: in vivo, Polygonum convolvulus; conditions: Fallopia convolvulus, 504 h, dosage 80 g/ha
Outline: as §2

[25] = test system: VIOTR; assay: Pre-emergence herbicidal action against VIOTR; type: in vivo, Viola tricolor; conditions: Viola tricolor, 504 h
Outline: as §2

[26] = 80 g/ha, scored visually after 3 weeks vs untreated controls (100% = plants have died, 0% = like control plants)

In the case of `Cn1nnnc1NC(=O)c1ccc(Cl)c(C(=O)NC2CC2)c1Cl` [Example 1-173], the pest or weed control at 5 g/ha ([1]; dosage 5 g/ha) is reported as 90%, the pest or weed control at 20 g/ha ([1]; dosage 20 g/ha) is reported as 90% and the pest or weed control at 20 g/ha ([2]; dosage 20 g/ha) is reported as 90%. It also gave a pest or weed control at 80 g/ha ([2]; dosage 80 g/ha) of 100%, a pest or weed control at 20 g/ha ([3]; dosage 20 g/ha) of 100% and a pest or weed control at 80 g/ha ([3]; dosage 80 g/ha) of 100%. It also gave a pest or weed control at 20 g/ha ([4]; 20 g/ha) of 100%, a pest or weed control at 80 g/ha ([4]; 80 g/ha) of 100% and a pest or weed control at 20 g/ha ([5]; dosage 20 g/ha) of 80%. The pest or weed control at 80 g/ha ([5]; dosage 80 g/ha) was 100%, the pest or weed control at 5 g/ha ([6]; 5 g/ha) was 90% and the pest or weed control at 20 g/ha ([6]; 20 g/ha) was 100%. For the same molecule, the pest or weed control at 20 g/ha ([7]; 20 g/ha) was 80%, the pest or weed control at 80 g/ha ([7]; 80 g/ha) was 90% and the pest or weed control at 80 g/ha [8] was 100%. It also gave a pest or weed control at 20 g/ha [9] of 90%, a pest or weed control at 20 g/ha ([10]; 20 g/ha) of 100% and a pest or weed control at 5 g/ha ([10]; dosage 5 g/ha) of 80%. It also gave a pest or weed control at 80 g/ha [11, 26] of 100%, a pest or weed control at 20 g/ha ([11]; 20 g/ha, scored visually after 3 weeks, 100% = plants have died, 0% = like control plants) of 80% and a pest or weed control at 20 g/ha ([12]; dosage 20 g/ha) of 80%. It also gave a pest or weed control at 80 g/ha ([12]; dosage 80 g/ha) of 100%, a pest or weed control at 80 g/ha [13] of 100% and a pest or weed control at 20 g/ha [14] of 90%. The pest or weed control at 20 g/ha [15] was 90%, the pest or weed control at 20 g/ha [16] was 100% and the pest or weed control at 80 g/ha [17] was 90%. The pest or weed control at 80 g/ha [18] was 90%, the pest or weed control at 5 g/ha ([19]; 5 g/ha) was 90% and the pest or weed control at 20 g/ha ([19]; 20 g/ha) was 90%. For the same molecule, the pest or weed control at 20 g/ha [20] was 80%, the pest or weed control at 80 g/ha [21, 26] was 100% and the pest or weed control at 20 g/ha ([21]; dosage 20 g/ha, scored visually after 3 weeks vs untreated controls, 100% = plants have died, 0% = like control plants, read-out: Pre-emergence action against ABUTH (herbicidal activity in percent)) was 90%. It also gave a pest or weed control at 5 g/ha ([22]; 5 g/ha) of 90%, a pest or weed control at 20 g/ha ([22]; 20 g/ha) of 100% and a pest or weed control at 20 g/ha [23] of 80%. It also gave a pest or weed control at 80 g/ha [24] of 80%, a pest or weed control at 20 g/ha ([25]; dosage 20 g/ha) of 80% and a pest or weed control at 80 g/ha ([25]; dosage 80 g/ha) of 90%.
